Patent publication US12138256B2, “Treatment of cardiopulmonary disorders” (Bayer Aktiengesellschaft, priority 2021, dated 2024)

Test system: sGC (cGMP)
Test: Phase I, healthy male subjects, 14 days inhalation: cGMP concentration (C-4.2)
Assay type: in vivo, human
Settings: for cGMP change from baseline / cGMP concentration, mean +/− SD: 1000 μg
Description: Healthy white male subjects, aged 18 to 45 years and with a body mass index (BMI) above/equal 18.5 and below/equal 29.9 kg/m2 were treated in a clinical pharmacological phase I study for 14 days with inhaled once daily doses of 1000 μg (nominal dose) or Placebo of dry powder of example 4. The subjects inhaled the drug powder from capsules (see under D-1, e.g. tables 17 and 20) inserted into a handheld inhalation device by one deep inhalative breath into the deep parts of the lung. The intended substantial reduction of increased blood pressure in the central pulmonary blood vessels cannot be evaluated in subjects without pathophysiological impairment of lung function. As surrogate for drug concentration in the lung, plasma concentrations over time have been analysed. […] Drug activity/target engagement in healthy men was controlled in the healthy subjects by analysing blood samples for cGMP. Results are shown in as mean in table C4.2.1 and change to baseline in FIG. 76 and table C4.2.2.

[1] = −0 D 09 H 00 M (pretreatment day)
[2] = −0 D 12 H 00 M (pretreatment day)
[3] = −0 D 16 H 00 M (pretreatment day)
[4] = −0 D 18 H 00 M (pretreatment day)
[5] = −0 D 20 H 00 M (pretreatment day)
[6] = −0 D 22 H 00 M (pretreatment day)

O=C(O)c1ccc(CCN(CCc2ccccc2OCc2ccc(-c3ccc(C(F)(F)F)cc3)cc2Cl)[C@H]2CCCc3nc(C(=O)O)ccc32)cc1 [example 4, (5S)-{[2-(4-Carboxyphenyl)ethyl][2-(2-{[3-chloro-4′-(trifluoromethyl)biphenyl-4-yl]methoxy}phenyl)-ethyl]amino}-5,6,7,8-tetrahydroquinoline-2-carboxylic acid]
time until maximum cGMP values were reached (1000 μg once daily): 7 days
time until steady state of cGMP concentration (1000 μg once daily): ≤ 11 days
cGMP change from baseline (0 D 02 H 00 M): 4840 pM
cGMP concentration, mean +/− SD (0 D 02 H 00 M): 9170 pM
cGMP change from baseline (0 D 04 H 00 M): 7290 pM
cGMP concentration, mean +/− SD (0 D 04 H 00 M): 11600 pM
cGMP change from baseline (0 D 06 H 00 M): 9950 pM
cGMP concentration, mean +/− SD (0 D 06 H 00 M): 14300 pM
cGMP change from baseline (0 D 08 H 00 M): 10600 pM
cGMP concentration, mean +/− SD (0 D 08 H 00 M): 14900 pM
cGMP change from baseline (0 D 12 H 00 M): 7530 pM
cGMP concentration, mean +/− SD (0 D 12 H 00 M): 11800 pM
cGMP change from baseline (0 D 15 H 00 M): 6740 pM
cGMP concentration, mean +/− SD (0 D 15 H 00 M): 11100 pM
cGMP change from baseline (1 D 00 H 00 M): 2980 pM
cGMP concentration, mean +/− SD (1 D 00 H 00 M): 7310 pM
cGMP change from baseline (2 D 00 H 00 M): 4550 pM
cGMP concentration, mean +/− SD (2 D 00 H 00 M): 8880 pM
cGMP change from baseline (2 D 03 H 00 M): 13000 pM
cGMP concentration, mean +/− SD (2 D 03 H 00 M): 17300 pM
cGMP change from baseline (2 D 08 H 00 M): 16400 pM
cGMP concentration, mean +/− SD (2 D 08 H 00 M): 20800 pM
cGMP change from baseline (2 D 12 H 00 M): 12600 pM
cGMP concentration, mean +/− SD (2 D 12 H 00 M): 16900 pM
cGMP change from baseline (3 D 00 H 00 M): 5160 pM
cGMP concentration, mean +/− SD (3 D 00 H 00 M): 9490 pM
cGMP change from baseline (4 D 00 H 00 M): 6360 pM
cGMP concentration, mean +/− SD (4 D 00 H 00 M): 10700 pM
cGMP change from baseline (5 D 00 H 00 M): 5920 pM
cGMP concentration, mean +/− SD (5 D 00 H 00 M): 10300 pM
cGMP change from baseline (6 D 00 H 00 M): 5090 pM
cGMP concentration, mean +/− SD (6 D 00 H 00 M): 9420 pM
cGMP change from baseline (6 D 03 H 00 M): 13400 pM
cGMP concentration, mean +/− SD (6 D 03 H 00 M): 17700 pM
cGMP change from baseline (6 D 08 H 00 M): 20100 pM
cGMP concentration, mean +/− SD (6 D 08 H 00 M): 24500 pM
cGMP change from baseline (6 D 12 H 00 M): 13900 pM
cGMP concentration, mean +/− SD (6 D 12 H 00 M): 18200 pM
cGMP change from baseline (7 D 00 H 00 M): 6180 pM
cGMP concentration, mean +/− SD (7 D 00 H 00 M): 10500 pM
cGMP change from baseline (8 D 00 H 00 M): 6200 pM
cGMP concentration, mean +/− SD (8 D 00 H 00 M): 10500 pM
cGMP change from baseline (9 D 00 H 00 M): 6580 pM
cGMP concentration, mean +/− SD (9 D 00 H 00 M): 10900 pM
cGMP change from baseline (10 D 00 H 00 M): 6450 pM
cGMP concentration, mean +/− SD (10 D 00 H 00 M): 10800 pM
cGMP change from baseline (10 D 03 H 00 M): 12700 pM
cGMP concentration, mean +/− SD (10 D 03 H 00 M): 17100 pM
cGMP change from baseline (10 D 08 H 00 M): 17500 pM
cGMP concentration, mean +/− SD (10 D 08 H 00 M): 21900 pM
cGMP change from baseline (10 D 12 H 00 M): 13000 pM
cGMP concentration, mean +/− SD (10 D 12 H 00 M): 17300 pM
cGMP change from baseline (11 D 00 H 00 M): 6940 pM
cGMP concentration, mean +/− SD (11 D 00 H 00 M): 11300 pM
cGMP change from baseline (12 D 00 H 00 M): 8060 pM
cGMP concentration, mean +/− SD (12 D 00 H 00 M): 12400 pM
cGMP change from baseline (12 D 22 H 00 M): 6950 pM
cGMP concentration, mean +/− SD (12 D 22 H 00 M): 11300 pM
cGMP change from baseline (13 D 02 H 00 M): 9120 pM
cGMP concentration, mean +/− SD (13 D 02 H 00 M): 13400 pM
cGMP change from baseline (13 D 04 H 00 M): 12900 pM
cGMP concentration, mean +/− SD (13 D 04 H 00 M): 17300 pM
cGMP change from baseline (13 D 06 H 00 M): 17000 pM
cGMP concentration, mean +/− SD (13 D 06 H 00 M): 21400 pM
cGMP change from baseline (13 D 08 H 00 M): 17700 pM
cGMP concentration, mean +/− SD (13 D 08 H 00 M): 22000 pM
cGMP change from baseline (13 D 12 H 00 M): 12900 pM
cGMP concentration, mean +/− SD (13 D 12 H 00 M): 17200 pM
cGMP change from baseline (13 D 15 H 00 M): 12100 pM
cGMP concentration, mean +/− SD (13 D 15 H 00 M): 16400 pM
cGMP change from baseline (14 D 00 H 00 M): 5410 pM
cGMP concentration, mean +/− SD (14 D 00 H 00 M): 9740 pM
cGMP change from baseline (15 D 00 H 00 M): 2520 pM
cGMP concentration, mean +/− SD (15 D 00 H 00 M): 6850 pM
cGMP change from baseline (15 D 12 H 00 M): 3040 pM
cGMP concentration, mean +/− SD (15 D 12 H 00 M): 7370 pM
cGMP change from baseline (16 D 00 H 00 M): 2000 pM
cGMP concentration, mean +/− SD (16 D 00 H 00 M): 6330 pM
cGMP change from baseline (16 D 12 H 00 M): 2410 pM
cGMP concentration, mean +/− SD (16 D 12 H 00 M): 6740 pM
cGMP change from baseline (17 D 00 H 00 M): 400 pM
cGMP concentration, mean +/− SD (17 D 00 H 00 M): 4730 pM
cGMP change from baseline (20 D 00 H 00 M): 1220 pM
cGMP concentration, mean +/− SD (20 D 00 H 00 M): 5520 pM
cGMP change from baseline (FOLLOW-UP): 1520 pM
cGMP concentration, mean +/− SD (FOLLOW-UP): 5850 pM
cGMP concentration, mean +/− SD (−0 D 02 H 00 M (prior to first inhalation)): 4330 pM
cGMP change from baseline [1]: 224 pM
cGMP concentration, mean +/− SD [1]: 5490 pM
cGMP change from baseline [2]: 306 pM
cGMP concentration, mean +/− SD [2]: 5570 pM
cGMP change from baseline [3]: 676 pM
cGMP concentration, mean +/− SD [3]: 5940 pM
cGMP change from baseline [4]: −252.9 +/− 1345.9
cGMP concentration, mean +/− SD [4]: 5010 pM
cGMP change from baseline [5]: −952.9 +/− 1984.7
cGMP concentration, mean +/− SD [5]: 4310 pM
cGMP change from baseline [6]: −100.0 +/− 1403.1
cGMP concentration, mean +/− SD [6]: 5160 pM
cGMP concentration, mean +/− SD (−1 D 02 H 00 M (pretreatment day)): 5260 pM
